This is an account of results in patent US20160000762A1, “IMPROVING COGNITIVE FUNCTION” (THE REGENTS OF THE UNIVERSITY OF CALIFORNIA, priority 2013, published 2016).

The assay concerns RasGRF1, p-ERK, p-CREB. In words: Ras signaling immunofluorescence, primary hippocampal neurons. The assay is classed as cell-based, Sprague-Dawley rats. The conditions noted are these: 5 μM. On the procedure: Primary neuron culture and immunostaining. Primary hippocampal neurons from E19 Sprague-Dawley rats were cultured at 150 cells/mm^2 as previously described (Pak et al., 2001). Neurons were transfected using Lipofectamine™ 2000 (Invitrogen, Carlsbad, Calif., USA) or calcium phosphate precipitation with GFP+PLL, GFP+APP shRNA, or GFP+APP and treated with BTA-EG4. The following antibodies were used: mouse anti-GFP (Novus Biologicals, 9F9.F9), rabbit anti-GFP (Invitrogen, A11122), rabbit anti-GluR1 (Calbiochem, PC246), mouse anti-GluR2 (BD Pharmagen, 556341), mouse anti-postsynaptic density (PSD)-95 (NeuroMabs, Davis, Calif., USA), mouse anti-Synaptophysin (Sigma Aldrich, s5768), rabbit APP N-terminal (Sigma-Aldrich, A8967), anti-Ras (BD Biosciences, 610001), anti-RasGRF1 (Santa Cruz, C-20; BD Biosciences, 610149), anti-ERK1/2 (Cell Signaling, 4695), anti-p-ERK1/2 (Invitrogen, 36880), anti-CREB (Cell Signaling, D76D11), anti-p-CREB (Millipore, 06-519), and mouse anti-c-Myc (Novus Biologicals, 9E10). Cultured hippocampal neuron images were acquired by LSM 510 laser scanning confocal microscope (Zeiss). Confocal zseries image stacks encompassing entire dendrite segments were analyzed using MetaMorph software (Universal Imaging Corporation, Downington, Pa., USA).
We next investigated the molecular mechanism by which BTA-EG4 may alter dendritic spine formation. Ras, a small GTPase, is involved in dendritic spine formation and synaptic delivery of AMPA receptors (Zhu et al., 2002; Lee et al., 2011). Moreover, abnormal Ras signaling is associated with neurodegenerative disease, causing cognitive impairments and learning deficits (Stornetta and Zhu, 2011). Thus, we initially investigated the effect of BTA-EG4 on Ras signaling by treating primary hippocampal neurons with BTA-EG4 (5 μM) or control for 24 hrs. […] Further, levels of active Ras were elevated following BTA-EG4 treatment (5 μM) in primary cortical neurons (FIG. 7C) and following BTA-EG4 treatment (30 mg/kg) in wild-type mice (FIG. 7D). We also examined whether BTA-EG4 can alter the activity of downstream Ras signaling proteins, including p-ERK and p-CREB.
Since we observed that BTA-EG4 and APP could possibly regulate dendritic spine density through Ras-dependent mechanisms, we then examined whether BTA-EG4 requires APP to modulate Ras signaling. To test this hypothesis, primary hippocampal neurons were transfected with GFP and APP shRNA or GFP and APP, treated with control or BTA-EG4 (5 μM), then immunostained against RasGRF1 (FIGS. 9A, 9B).

Turning to BTA-EG4, where the note is “24 h”, the “levels of RasGRF1” value was “increased”, the “phosphorylation of CREB” value is on record as “increased”, the “phosphorylation of ERK” value is “increased” and the “total ERK or CREB levels” value is given as “without altering”. Where the note is “knockdown of APP”, the RasGRF1 result is “did not increase”, the p-CREB result is given as “ineffective” and the p-ERK result was “ineffective”. For the same substance, under “overexpression of APP”, the RasGRF1 entry is “significantly increased”, the p-CREB entry was “significantly increased” and the p-ERK entry is given as “significantly increased”.
